Structures can show the parent of a compound that is named as a salt.
What follows are molecules tested against T1, human P2X4 receptors (Homo sapiens, UniProt Q99571) (assay: calcium influx assay (Fura-2, ATP-induced Ca2+ response) for P2X4 receptor antagonism). Settings: 1321N1 cells stably expressing human P2X4 receptors; 1 μM ATP; compound treated 15 min before ATP; fluorescence ratio F340/F380.
T1 construct: expressed in transfected cells
T1 sequence (Q99571 1-388): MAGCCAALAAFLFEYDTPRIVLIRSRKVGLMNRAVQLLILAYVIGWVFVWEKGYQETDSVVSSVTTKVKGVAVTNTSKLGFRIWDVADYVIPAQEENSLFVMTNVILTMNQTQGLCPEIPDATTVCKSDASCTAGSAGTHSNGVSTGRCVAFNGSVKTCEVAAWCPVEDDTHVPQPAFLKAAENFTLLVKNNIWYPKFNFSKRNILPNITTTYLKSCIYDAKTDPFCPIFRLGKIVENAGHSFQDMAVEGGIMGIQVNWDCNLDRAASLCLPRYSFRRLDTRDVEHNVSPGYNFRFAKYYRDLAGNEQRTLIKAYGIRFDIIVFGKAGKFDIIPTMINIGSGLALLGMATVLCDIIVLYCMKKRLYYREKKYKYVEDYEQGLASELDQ
Assay type: cell-based
Method: (§1) 1321N1 cells stably expressing human P2X4 receptors were adopted for calcium influx assay. P2X4/1321N1 cells were plated in 96-well assay plate and cultured 24 hours in an atmosphere of 5% CO2 at 37° C. Fura-2 AM calcium indicator dissolved in an extracellular solution for calcium imaging was loaded onto cells for 45 minutes at room temperature. […] The cells were alternatively illuminated with two excitations wavelengths (340 nm and 380 nm) via xenon lamp and the emitted fluorescence was measured at 510 nm. The fluorescence changes after the treatment of 1 μM ATP were monitored and determined the fluorescence ratio (F340/F380) as the index of intracellular calcium change. Tested compounds were treated to cells 15 min before the addition of ATP and the inhibition activities of compounds were calculated by comparing the Ca^2+ response with control in the absence of tested compound.
P2X4 receptor antagonism of the compound of the present invention was measured as described below.
as §1, with “change.” for “change. Tested compounds were treated to cells 15 min before the addition of ATP and the inhibition activities of compounds were calculated by comparing the Ca^2+ response with control in the absence of tested compound.”

SMILES | IC50 [µM]
O=C1CC(=O)N(c2ccc(-c3nnn[nH]3)cc2)c2ccc3ccccc3c2N1 [Example 4, 5-[4-(1H-Tetrazol-5-yl)phenyl]-1H-naphtho[1,2-b][1,4]diazepin-2,4(3H,5H)-dione sodium salt] | 0.75
O=C1CC(=O)N(c2cccc(-c3ncco3)c2)c2ccc3ccccc3c2N1 [Example 15, 5-[3-(Oxazol-2-yl)phenyl]-1H-naphtho[1,2-b][1,4]diazepin-2,4(3H,5H)-dione] | 4.2
O=C1CC(=O)N(c2cccc(-c3cn[nH]c3)c2)c2ccc3ccccc3c2N1 [Example 16, 5-[3-(1H-Pyrazol-4-yl)phenyl]-1H-naphtho[1,2-b][1,4]diazepin-2,4(3H,5H)-dione] | 3.6

Reference: US8470814B2, “Diazepinedione derivative” (Nippon Chemiphar Co., Ltd., priority 2009, dated 2013)
